US7176228B2, “Pyrazole biphenylcarboxamides” (Bayer Cropscience AG, priority 2000, dated 2007)

Experiments:
[1] = system: Gloeophyllum trabeum, Coniophora puteana, Poria placenta, Lentinus tigrinus and Coriolus versicolor; assay: Inhibition test on giant colonies of Basidiomycetes; assay type: cell-based; conditions: inhibition of hyphal growth on malt extract peptone agar at 26° C., 6 ppm active compound; read-out: % efficacy
Protocol: Inhibition Test on Giant Colonies of Basidiomycetes Mycelium sections were removed from colonies of Gloeophyllum trabeum, Coniophora puteana, Poria placenta, Lentinus tigrinus and Coriolus versicolor and incubated on an agar medium containing malt extract peptone at 26° C. The inhibition of hyphal growth on active-compound-containing media was compared with the longitudinal growth on media without an addition of active compound and rated as per cent inhibition.

Venturia inaequalis = assay: Venturia test (apple) / protective; assay type: in vivo; conditions: 288 h, apple plants, protective spray, application rate 100 g/ha, evaluation 12 days after inoculation, read-out: % Efficacy
Protocol: Venturia Test (apple)/Protective [table] To produce a suitable preparation of active compound, 1 part by weight of active compound is mixed with the stated amounts of solvent and emulsifier, and the concentrate is diluted with water to the desired concentration. To test for protectivity activity, young plants are sprayed with the preparation of active compound at the stated application rate. After the spray coating has dried on, the plants are inoculated with an aqueous conidia suspension of the apple scab pathogen Venturia inaequalis and then remain in an incubation cabin at approximately 20° C. and 100% relative atmospheric humidity for 1 day. The plants are then placed in a greenhouse at approximately 21° C. and a relative atmospheric humidity of approximately 90%. Evaluation is carried out 12 days after the inoculation. 0% means an efficacy which corresponds to that of the control, whereas an efficacy of 100% means that no infection is observed.

Podosphaera leucotricha = assay: Podosphaera test (apple) / protective; assay type: in vivo; conditions: 240 h, apple plants, protective spray, application rate 100 g/ha, evaluation 10 days after inoculation, read-out: % Efficacy
Protocol: Podosphaera Test (apple)/Protective Solvent: 24.5 parts by weight of acetone • 24.5 parts by weight of dimethylacetamide Emulsifier; 1.0 part by weight of alkyl-aryl polyglycol ether To produce a suitable preparation of active compound, 1 part by weight of active compound is mixed with the stated amounts of solvent and emulsifier, and the concentrate is diluted with water to the desired concentration. To test for protectiv activity, young plants are sprayed with the preparation of active compound at the stated application rate. After the spray coating has dried on, the plants are inoculated with an aqueous spore suspension of the apple mildew pathogen Podosphaera leucotricha. The plants are then placed in a greenhouse at approximately 23° C. and a relative atmospheric humidity of approximately 70%. Evaluation is carried out 10 days after the inoculation. 0% means an efficacy which corresponds to that of the control, whereas an efficacy of 100% means that no infection is observed.

Alternaria solani = assay: Alternaria test (tomato) / protective; assay type: in vivo; conditions: tomato plants, protective spray, application rate 750 g/ha, evaluation 7 days after inoculation
Protocol: Alternaria Test (tomato)/Protective [table] To produce a suitable preparation of active compound, 1 part by weight of active compound is mixed with the stated amounts of solvent and emulsifier, and the concentrate is diluted with water to the desired concentration. To test for protective activity, young tomato plants are sprayed with the preparation of active compound at the stated application rate. 1 day after the treatment, the plants are inoculated with a spore suspension of Alternaria solani and then remain at 100% rel. humidity and 20° C. for 24 h. The plants then remain at 96% rel. atmospheric humidity and a temperature of 20° C. Evaluation is carried out 7 days after the inoculation. 0% means an efficacy which corresponds to that of the control, whereas an efficacy of 100% means that no infection is observed.

Sphaerotheca fuliginea = assay: Sphaerotheca test (cucumber) / protective; assay type: in vivo; conditions: Podosphaera fuliginea, 240 h; cucumber plants, protective spray, application rate 100 g/ha, evaluation 10 days after inoculation; read-out: % Efficacy
Protocol: Sphacrotheca Test (cucumber)/Protective [table] To produce a suitable preparation of active compound, 1 part by weight of active compound is mixed with the stated amounts of solvent and emulsifier, and the concentrate is diluted with water to the desired concentration. To test for protectivity activity, young plants are sprayed with the preparation of active compound at the stated application rate. After the spray coating has dried on, the plants are inoculated with an aqueous spore suspension of Sphaerotheca fuliginea. The plants are then placed in a greenhouse at approximately 23° C. and a relative atmospheric humidity of approximately 70%. Evaluation is carried out 10 days after the inoculation. 0% means an efficacy which corresponds to that of the control, whereas an efficacy of 100% means that no infection is observed.

Puccinia recondite = assay: Puccinia test (wheat) / protective; assay type: in vivo; conditions: wheat plants, protective spray, application rate 250 g/ha, evaluation 10 days after inoculation
Protocol: Puccinia Test (wheat)/Protective [table] To produce a suitable preparation of active compound, 1 part by weight of active compound is mixed with the stated amounts of solvent and emulsifier, and the concentrate is diluted with water to the desired concentration. To test for protective activity, young plants arc sprayed with the preparation of active compound at the stated application rate. After the spray coating has dried on, the plants are sprayed with a conidia suspension of Puccinia recondite. The plants remain in an incubation cabin at 20° C. and 100% relative atmospheric humidity for 48 hours. The plants are then placed in a greenhouse at a temperature of approximately 20° C. and a relative atmospheric humidity of 80% to promote the development of rust pustules. Evaluation is carried out 10 days after the inoculation. 0% means an efficacy which corresponds to that of the control, whereas an efficacy of 100% means that no infection is observed.

Compound | Emax at 6 ppm [1] [%] | pest or weed control at 100 g/ha (Venturia inaequalis) [%] | pest or weed control at 100 g/ha (Podosphaera leucotricha) [%] | % Efficacy (Alternaria solani) [%] | pest or weed control at 100 g/ha (Sphaerotheca fuliginea) [%] | % Efficacy (Puccinia recondite) [%]
CO/N=C/c1ccc(-c2ccccc2NC(=O)c2sc(C)nc2C(F)(F)F)cc1 [Example I-1] | 100 | 100 | 100 | 100 | 100 | 100
CO/N=C/c1cccc(-c2ccccc2NC(=O)c2sc(C)nc2C(F)(F)F)c1 [Example I-2] | – | – | – | 100 | – | –
CCCCO/N=C\c1ccc(-c2ccccc2NC(=O)c2sc(C)nc2C(F)(F)F)cc1 [Example I-3] | – | 100 | 100 | – | 100 | 100
CCO/N=C\c1ccc(-c2ccccc2NC(=O)c2sc(C)nc2C(F)(F)F)cc1 [Example I-4] | – | 100 | 95 | – | 93 | –
Cc1nc(C(F)(F)F)c(C(=O)Nc2ccccc2-c2ccc(/C=N\OC(C)C)cc2)s1 [Example I-5] | – | 100 | 100 | – | 100 | –
CO/N=C(\C)c1ccc(-c2ccccc2NC(=O)c2sc(C)nc2C(F)(F)F)cc1 [Example I-6] | – | – | – | 90 | – | –
CO/N=C\c1ccc(-c2ccccc2NC(=O)c2cn(C)nc2C(F)(F)F)cc1 [Example I-10] | 100 | 88 | 88 | – | 88 | 100
CO/N=C/c1ccc(-c2ccccc2NC(=O)c2cn(C)nc2C(F)F)cc1 [Example I-11] | 100 | 100 | 93 | 95 | 95 | –
CO/N=C\c1ccc(-c2ccccc2NC(=O)c2cn(C)nc2C)cc1 [Example I-12] | 100 | – | – | – | – | –
CO/N=C\c1ccc(-c2ccccc2NC(=O)c2cccnc2Cl)cc1 [Example I-20] | – | 100 | 100 | – | 100 | 100
CCCCO/N=C/c1ccc(-c2ccccc2NC(=O)c2cn(C)nc2C(F)(F)F)cc1 [Example I-22] | – | 100 | 100 | – | 100 | –
CCCO/N=C/c1ccc(-c2ccccc2NC(=O)c2sc(C)nc2C(F)(F)F)cc1 [Example I-23] | – | 100 | 100 | – | 100 | –
CCO/N=C(/C)c1ccc(-c2ccccc2NC(=O)c2cn(C)nc2C(F)(F)F)cc1 [Example I-24] | – | 100 | 75 | – | 92 | –
CC(C)O/N=C/c1ccc(-c2ccccc2NC(=O)c2cn(C)nc2C(F)(F)F)cc1 [Example I-26] | – | 100 | 100 | – | 100 | –
CCCO/N=C/c1ccc(-c2ccccc2NC(=O)c2cn(C)nc2C(F)(F)F)cc1 [Example I-28] | – | 100 | 99 | – | 100 | –
Cn1cc(C(=O)Nc2ccccc2-c2ccc(/C=N\O)cc2)c(C(F)(F)F)n1 [Example I-41] | – | 100 | 98 | – | 72 | –
CO/N=C/c1ccc(-c2ccccc2NC(=O)c2sccc2C)cc1 [Example I-47] | – | 100 | 100 | – | 100 | –
CO/N=C/c1ccc(-c2ccccc2NC(=O)c2cn(C)nc2C(F)(F)F)cc1Cl [Example I-49] | – | 100 | 100 | – | 100 | 100
CO/N=C\c1cc(-c2ccccc2NC(=O)c2cn(C)nc2C(F)(F)F)ccc1/C=N/OC [Example I-50] | – | 100 | 93 | – | 97 | –
CO/N=C/c1ccc(-c2c(C)cccc2NC(=O)c2sc(C)nc2C(F)(F)F)cc1 [Example I-51] | – | 100 | 100 | – | 100 | 100
CO/N=C/c1cccc(-c2ccccc2NC(=O)c2cn(C)nc2C(F)(F)F)c1 [Example I-52] | – | 100 | 77 | – | 97 | –
